Test results from US12478625B2, “Pharmaceutical compositions and crushable tablets including amorphous solid dispersions of dasatinib and uses” (Handa Therapeutics, LLC, priority 2021, dated 2025).

What was measured:
Settings in all cases: promptly after spray drying and vacuum drying
[1] = Amorphicity / crystallinity by XRD on stability; type: physicochemical
Protocol: Diffraction patterns were obtained using a Rigaku MiniFlex 600.
The percent of crystallinity was calculated as follows: % crystallinity=area of crystalline peaks/(area of crystalline peaks+amorphous peaks)
(§1) ASDs stored at 25° C./60% RH and 25° C./protected were additionally evaluated at 9 months and 12 months.
Amorphicity and glass transition temperature were assessed using the methodology described in Example 1.

[2] = Water content by coulometric Karl Fischer titration; type: physicochemical
[3] = Assay / total impurities by HPLC on stability; type: physicochemical
Protocol: as §1
LOD was evaluated using the Computrac Max 4000, in which approximately 0.5 g of material was spread evenly across the sample pan. Assay/impurities of the ASDs were assessed using the instrument parameters, measurement conditions, and gradient profile specified in Table 11.

[4] = Glass transition temperature by modulated DSC

In the case of `Cc1nc(Nc2ncc(C(=O)Nc3c(C)cccc3Cl)s2)cc(N2CCN(CCO)CC2)n1` [spray-dried material of 100% dasatinib], the XRD crystallinity [1] is reported as “exhibited crystalline character”, the Water content [2] is reported as 0.81% and the assay value [3] is reported as 97.4%. The “glass transition temperature (Tg)” value [4] was 125.61 °C.
